This note sets out measurements from ChEMBL document CHEMBL4699616, “Novel deoxyvasicinone and tetrahydro-beta-carboline hybrids as inhibitors of acetylcholinesterase and amyloid beta aggregation” (Bioorg Med Chem Lett, 2020).

Data set [1] deals with T1, Cholinesterase (Homo sapiens, UniProt P06276). Put plainly: Inhibition of human serum BuChe at 1 uM by Ellman's method relative to control. Format: cell-free.
The target in data set [2] is T2, Amyloid-beta precursor protein (Homo sapiens, UniProt P05067). Put plainly: Inhibition of amyloid beta (1 to 42) (unknown origin) self aggregation at 20 uM incubated for 48 hrs by thioflavin-T fluorescence method relative to control.
Data set [3] addresses T3, Acetylcholinesterase (Homo sapiens, UniProt P22303). Put plainly: Inhibition of human erythrocytes AChE at 1 uM by Ellman's method relative to control. Format: cell-based. The conditions noted are these: Erythrocyte.
In data set [4] the target is T1, Cholinesterase.
Description: Inhibition of human serum BuChe by Ellman's method
The target in data set [5] is T2, Amyloid-beta precursor protein.
Description: Inhibition of amyloid beta (1 to 42) (unknown origin) self aggregation incubated for 48 hrs by thioflavin-T fluorescence method
Data set [6] addresses T3, Acetylcholinesterase. Put plainly: Inhibition of human erythrocytes AChE by Ellman's method. Format: cell-based, Erythrocyte.
Data set [7] has as its system SH-SY5Y. The data set is described as follows: Neuroprotective activity against amyloid beta (1 to 42) induced cell damage in human SH-SY5Y cells assessed as increase in cell viability at 1 to 10 uM measured after 48 hrs. Format: functional, cell-based. The conditions noted are these: dose microM 1-10, time 48.0 hrs.
Data set [8] concerns SH-SY5Y. Put plainly: Cytotoxicity against human SH-SY5Y cells assessed as effect on cell viability at 0.1 uM after 48 hrs by MTT assay. Format: cell-based.
A short description of data set [9]: Cytotoxicity against human SH-SY5Y cells assessed as cell viability at 10 uM after 48 hrs by MTT assay relative to control. Format: cell-based. The conditions noted are these: read-out: Activity.
Data set [10] concerns the target T3, Acetylcholinesterase. The data set is described as follows: Inhibition of human erythrocytes AChE using acetylthiocholine iodide as substrate preincubated for 4.5 mins followed by substrate addition measured after 2.5 mins by Ellman's method. Also on record: species or system Erythrocyte.
The subject of data set [11] is SH-SY5Y. Put plainly: Cytotoxicity against human SH-SY5Y cells assessed as effect on cell viability at 0.1 to 1 uM after 48 hrs by MTT assay. As to conditions: dose 0.1-1 µM. Format: cell-based.
The target of data set [12] is T2, Amyloid-beta precursor protein. The data set is described as follows: Potency index, ratio of resveratrol IC50 to test compound IC50 for inhibition of amyloid beta (1 to 42) (unknown origin) self aggregation.
In data set [13] the test system is SH-SY5Y. Put plainly: Neuroprotective activity against amyloid beta (1 to 42) induced cell damage in human SH-SY5Y cells assessed as increase in cell viability at 0.1 uM measured after 48 hrs. Format: functional, cell-based.

Active and inactive are the calls of the source. The rule behind the calls is not given here.

T1 sequence (P06276 whole entry): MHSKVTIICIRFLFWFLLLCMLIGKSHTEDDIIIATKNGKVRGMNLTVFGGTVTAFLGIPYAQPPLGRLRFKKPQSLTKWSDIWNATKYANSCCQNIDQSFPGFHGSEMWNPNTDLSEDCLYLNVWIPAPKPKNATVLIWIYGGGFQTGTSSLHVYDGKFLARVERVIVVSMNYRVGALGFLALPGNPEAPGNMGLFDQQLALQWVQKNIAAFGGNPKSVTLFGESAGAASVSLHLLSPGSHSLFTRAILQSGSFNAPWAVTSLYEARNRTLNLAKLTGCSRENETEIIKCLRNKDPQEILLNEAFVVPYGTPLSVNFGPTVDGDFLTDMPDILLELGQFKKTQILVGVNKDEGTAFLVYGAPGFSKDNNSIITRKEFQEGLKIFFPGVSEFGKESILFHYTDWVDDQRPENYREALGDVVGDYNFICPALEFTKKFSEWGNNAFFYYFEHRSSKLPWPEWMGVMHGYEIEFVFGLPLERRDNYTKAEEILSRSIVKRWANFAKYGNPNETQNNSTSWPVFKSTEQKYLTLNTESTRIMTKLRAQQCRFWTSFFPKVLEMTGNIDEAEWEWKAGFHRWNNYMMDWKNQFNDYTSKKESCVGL
T2 sequence (P05067 whole entry): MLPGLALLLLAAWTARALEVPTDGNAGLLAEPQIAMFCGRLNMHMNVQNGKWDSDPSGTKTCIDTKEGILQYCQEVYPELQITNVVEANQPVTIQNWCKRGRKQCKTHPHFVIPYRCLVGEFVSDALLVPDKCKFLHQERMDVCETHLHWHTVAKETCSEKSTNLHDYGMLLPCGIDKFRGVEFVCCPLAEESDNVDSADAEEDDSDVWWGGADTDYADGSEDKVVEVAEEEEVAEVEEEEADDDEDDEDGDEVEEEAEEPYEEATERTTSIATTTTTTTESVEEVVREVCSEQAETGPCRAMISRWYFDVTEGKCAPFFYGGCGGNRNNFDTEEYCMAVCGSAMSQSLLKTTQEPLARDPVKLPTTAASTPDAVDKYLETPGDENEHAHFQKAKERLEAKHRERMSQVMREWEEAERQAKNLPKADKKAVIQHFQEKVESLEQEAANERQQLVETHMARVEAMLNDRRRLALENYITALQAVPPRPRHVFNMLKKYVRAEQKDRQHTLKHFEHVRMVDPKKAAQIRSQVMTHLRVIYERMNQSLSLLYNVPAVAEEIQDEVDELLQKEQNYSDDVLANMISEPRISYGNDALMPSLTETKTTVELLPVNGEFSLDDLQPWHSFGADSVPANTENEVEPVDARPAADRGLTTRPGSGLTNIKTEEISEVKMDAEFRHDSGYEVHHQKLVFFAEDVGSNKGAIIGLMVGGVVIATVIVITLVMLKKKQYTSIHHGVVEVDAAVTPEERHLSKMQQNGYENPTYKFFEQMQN
T3 sequence (P22303 whole entry): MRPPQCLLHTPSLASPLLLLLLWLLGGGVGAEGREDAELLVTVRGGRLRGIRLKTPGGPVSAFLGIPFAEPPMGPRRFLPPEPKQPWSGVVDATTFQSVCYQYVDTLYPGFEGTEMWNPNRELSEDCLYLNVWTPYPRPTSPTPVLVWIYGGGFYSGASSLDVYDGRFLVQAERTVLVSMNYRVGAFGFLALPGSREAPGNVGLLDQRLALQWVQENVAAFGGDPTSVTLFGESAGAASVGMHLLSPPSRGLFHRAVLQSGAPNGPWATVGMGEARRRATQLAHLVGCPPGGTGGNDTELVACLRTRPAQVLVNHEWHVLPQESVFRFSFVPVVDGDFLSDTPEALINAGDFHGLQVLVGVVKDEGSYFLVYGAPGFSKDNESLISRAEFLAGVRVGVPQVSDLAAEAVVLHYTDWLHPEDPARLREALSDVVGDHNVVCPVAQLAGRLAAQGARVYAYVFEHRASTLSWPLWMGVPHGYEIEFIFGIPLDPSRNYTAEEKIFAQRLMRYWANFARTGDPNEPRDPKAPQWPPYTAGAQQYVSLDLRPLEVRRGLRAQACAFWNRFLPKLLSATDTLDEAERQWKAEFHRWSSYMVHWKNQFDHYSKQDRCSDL

Regarding `O=c1c2ccccc2nc2n1CCC2`, the results for the inhibition (at Cholinesterase [1]; in [2]; at Acetylcholinesterase [3]) were 40.5%, 20.7% and 29.7%, respectively.
In the case of `O=C(CN1CCC2c3ccccc3NC2C1)Nc1ccc(/C=C2\CCn3c2nc2ccccc2c3=O)cc1` (stereo not given), the inhibition in data set [2] was 37.5%; on Acetylcholinesterase [3] it was 21.6%. On Cholinesterase [4], this molecule yielded an IC50 of 0.596 µM.
Regarding `O=C(CCCCCN1CCC2c3ccccc3NC2C1)Nc1ccc(/C=C2\CCn3c2nc2ccccc2c3=O)cc1` (stereo not given), the figures for the IC50 (in data set [5]; against Acetylcholinesterase [6]; against Cholinesterase [4]) were 18.3 µM, 0.153 µM and 0.486 µM, respectively.
`O=C(CCCN1CCC2c3ccccc3NC2C1)Oc1ccc(/C=C2\CCn3c2nc2ccccc2c3=O)cc1` (stereo not given) displayed an inhibition in [2] of 41.5%. For the same molecule, the IC50 came out at 0.0165 µM against Acetylcholinesterase [6] and 0.0441 µM at Cholinesterase [4].
As to `O=C(CCN1CCC2c3ccccc3NC2C1)Oc1ccc(/C=C2\CCn3c2nc2ccccc2c3=O)cc1` (stereo not given), the result in the data set with SH-SY5Y [7] was Active. For the same molecule, the Activity result in the data set with SH-SY5Y [8] is on record as “Non-Toxic”. The 50% inhibitory concentration (IC50) amounted to 19.7 µM in [5], 0.00093 µM against Acetylcholinesterase [6] and 0.0692 µM against Cholinesterase [4]. The viability at 48 h, 10 µM in data set [9] is above 76%.
At Acetylcholinesterase [10], `O=c1c2cc(OCCCN3CCCCC3)ccc2nc2n1CCC2` gave an IC50 of 0.05 µM.
For the molecule `O=C(CCCCN1CCC2c3ccccc3NC2C1)Oc1ccc(/C=C2\CCn3c2nc2ccccc2c3=O)cc1` (stereo not given), the result with SH-SY5Y [7] and in the data set with SH-SY5Y [13] was Active. The Activity entry in the data set on SH-SY5Y [11] is reported as “Non-Toxic”. Moreover, the Ratio IC50 in data set [12] is 6. The IC50 worked out at 2.05 µM in data set [5], 0.00108 µM at Acetylcholinesterase [6] and 0.422 µM against Cholinesterase [4]. Besides, in data set [9], the viability at 48 h, 10 µM was above 76%.
In [2], `O=C(CCCCN1CCC2c3ccccc3NC2C1)Nc1ccc(/C=C2\CCn3c2nc2ccccc2c3=O)cc1` (stereo not given) came in with an inhibition of 27.9%. In addition, the IC50 against Acetylcholinesterase [6] is 0.0983 µM; against Cholinesterase [4], 0.0328 µM.
Molecule `O=C(CCN1CCC2c3ccccc3NC2C1)Nc1ccc(/C=C2\CCn3c2nc2ccccc2c3=O)cc1` (stereo not given) came in with an inhibition in [2] of 31.6%. In addition, the half-inhibitory concentration (IC50) on Acetylcholinesterase [6] turned out to be 0.00975 µM; on Cholinesterase [4] it was 0.726 µM.
As to `O=C(CCCCCN1CCC2c3ccccc3NC2C1)Oc1ccc(/C=C2\CCn3c2nc2ccccc2c3=O)cc1` (stereo not given), the IC50 was 15.1 µM in data set [5], 0.0107 µM at Acetylcholinesterase [6] and 0.507 µM at Cholinesterase [4].
As for `O=C(O)C1NCCC2c3ccccc3NC12` (stereo not given), the inhibition at Cholinesterase [1] came out at 40.5%; in data set [2], 20.7%; against Acetylcholinesterase [3], 29.7%.
With `O=C(CN1CCC2c3ccccc3NC2C1)Oc1ccc(/C=C2\CCn3c2nc2ccccc2c3=O)cc1` (stereo not given), the inhibition in data set [2] was 38.8%. Moreover, the values for the IC50 against Acetylcholinesterase [6] and against Cholinesterase [4] were 0.216 µM and 0.238 µM, respectively.
On to `O=C(CCCN1CCC2c3ccccc3NC2C1)Nc1ccc(/C=C2\CCn3c2nc2ccccc2c3=O)cc1` (stereo not given), for which the inhibition in data set [2] came to 21.2%; on Acetylcholinesterase [3], 49.9%. At Cholinesterase [4], this molecule displayed an IC50 of 0.215 µM.
